Measurements: patent publication US20030109432A1, “Anticancer polypeptide-metal complexes and compositions, methods of making, and methods of using same” (priority 2001, published 2003)

Test system: tumor tissues (breast)
Assay: Immunohistopathology of tumor tissue after treatment
Type: in vivo
Conditions: 48 hours post treatment, FIG. 7
Description: After treatment with either cisplatin or the platinum peptide complex, tumor tissues (breast) were dissected and embedded in […]. The tumor tissue was fixed in […] and stained for cellular target expression.

| Compound | histopathological changes |
| --- | --- |
| [NH2][Pt]([NH2])([Cl])[Cl] [CDDP, cisplatin] | marked necrosis and apoptosis |
| cis-1,2-DACH—Pt (II)-poly(glutamic/aspartic acid) [PDDP] | marked necrosis and apoptosis |
